Assay [1] has as its target T1, β1 -receptors of the heart (Canis lupus familiaris, UniProt P79148).
T1 construct: from tissue; host or cells: heart (left ventricle) of anaesthetised mongrel dogs, in vivo
In words: inhibition of isoproterenol effect on dp/dtmax of left ventricle (β1-receptors of the heart) in anaesthetised dogs. The format is in vivo, mongrel dogs. The following applies: for ED50: dog, cumulative intravenous dose for 50% inhibition of effect of isoproterenol (0.5 gamma/kg i.v.) on dp/dtmax, chloralose/urethane/morphine anaesthesia, read-out: ED50 β1 mg/kg intravenously; for ratio of the doses, ED50 β2 / ED50 β1 (head is drawing 43): number significantly >1 indicates cardioselective action. How it is done: (§1) Pharmacological tests for activity towards β1 -receptors and β2 -receptors were carried out on mongrel dogs of both sexes under chloralose/urethane/morphine anaesthesia. The pressure in the left ventricle was recorded by means of a catheter tip manometer (micro-tip pressure transducer, MILLAR Instruments, Houston, Texas). The pressure signal was continuously differentiated by means of an analog computer and recorded (BRUSH Instruments, Cleveland, Ohio). The flow of blood through an arteria femoralis was measured and recorded by means of an electromagnetic flow meter (Messrs. STATHAM, Model M4000). Injection catheters were fastened to a peripheral vein and into a branch of the a. femoralis.
(§2) Isoproterenol was injected intravenously (0.5 gamma/kg) and intraarterially (0.05 gamma/kg). The effect of the isoproterenol on the dp/dtmax in the case of intravenous administration was considered to be an expression of the stimulation of the β1 -receptors of the heart. The change in the flow of blood through the arteria femoralis in the case of intraarterial injection of isoproterenol was considered to be an expression of the stimulation of the peripheral β2 -receptors (D-DUNLOP and R. G. SHANKS, "Selective Blockade of Adrenoceptive beta-Receptors in the Heart", Br. J. Pharmac. Chemother., 32, 201 to 218, 1968). The percentage inhibition of the effects of isoproterenol with respect to the cumulative doses of the test substance was determined. The cumulative doses of the test substance which leads to 50% inhibition of the isoproterenol effects (=ED50) was determined by means of a modified probit analysis. Substances which inhibit the isoproterenol effects on the dp/dtmax (β1) at a low dose and only decrease the change in the flow of blood through the a. femoralis at higher doses (β2) preferentially act on the β1 -receptors of the heart. The ratio of the doses. [formula] should be as high as possible.

The target in a further assay is T2, peripheral β2 -receptors (Canis lupus familiaris, UniProt P54833).
T2 construct: from tissue; host or cells: femoral arterial bed of anaesthetised mongrel dogs, in vivo
The assay is described as follows: inhibition of isoproterenol effect on blood flow through arteria femoralis (peripheral β2-receptors) in anaesthetised dogs. The following applies: dog; cumulative intravenous dose for 50% inhibition of effect of isoproterenol (0.05 gamma/kg intraarterially) on blood flow through a. femoralis; chloralose/urethane/morphine anaesthesia; read-out: ED50 β2 mg/kg intraveneously. The format is in vivo, mongrel dogs. The procedure:
as §1, §2

The source of these data is US4216314A, “N-Aryloxypropyl-N'-dioxopyrimidyl-α,ω-alkylenediamines” (Cassella Farbwerke Mainkur Aktiengesellschaft, priority 1977, dated 1980).

T1 sequence (P79148 whole entry): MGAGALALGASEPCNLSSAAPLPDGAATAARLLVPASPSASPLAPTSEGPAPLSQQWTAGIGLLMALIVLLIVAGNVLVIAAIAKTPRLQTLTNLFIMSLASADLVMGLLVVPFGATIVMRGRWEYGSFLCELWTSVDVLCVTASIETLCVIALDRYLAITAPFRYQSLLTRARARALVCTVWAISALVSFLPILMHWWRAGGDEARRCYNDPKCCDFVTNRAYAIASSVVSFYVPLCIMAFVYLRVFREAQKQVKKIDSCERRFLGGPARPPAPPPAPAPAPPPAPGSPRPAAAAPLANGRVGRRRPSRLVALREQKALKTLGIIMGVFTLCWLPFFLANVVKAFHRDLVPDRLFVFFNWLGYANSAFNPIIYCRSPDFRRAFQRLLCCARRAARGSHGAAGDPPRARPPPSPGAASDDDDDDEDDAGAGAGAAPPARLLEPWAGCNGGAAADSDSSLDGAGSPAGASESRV
T2 sequence (P54833 whole entry): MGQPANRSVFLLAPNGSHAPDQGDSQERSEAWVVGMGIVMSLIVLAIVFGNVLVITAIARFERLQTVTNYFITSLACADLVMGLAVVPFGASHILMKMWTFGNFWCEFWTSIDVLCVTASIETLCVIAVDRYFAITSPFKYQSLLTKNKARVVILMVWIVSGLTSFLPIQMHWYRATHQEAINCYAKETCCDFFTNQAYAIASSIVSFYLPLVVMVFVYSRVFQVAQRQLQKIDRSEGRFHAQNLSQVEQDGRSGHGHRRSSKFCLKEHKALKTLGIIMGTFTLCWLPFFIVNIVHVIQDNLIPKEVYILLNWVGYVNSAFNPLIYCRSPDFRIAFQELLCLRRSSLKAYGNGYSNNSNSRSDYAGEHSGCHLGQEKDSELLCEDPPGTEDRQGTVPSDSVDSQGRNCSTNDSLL

Consider `CCCOc1ccc(OCC(O)CNCCNc2cc(=O)n(C)c(=O)n2C)cc1` (stereo not drawn) [Example 12], for which the figures for the ED50 (in assay [1]; on peripheral β2 -receptors) were 0.0061 mg/kg and above 7.3 mg/kg, respectively. Besides, in assay [1], the “ratio of the doses, ED50 β2 / ED50 β1 (head is drawing 43)” value (shortened to “ratio of the doses, ED50 β2 / ED50 β1”) was > 1,000.

With `COc1ccc(OCC(O)CNCCNc2cc(=O)n(C)c(=O)n2C)cc1` (stereo not drawn) [Example 11], in assay [1], the ED50 amounted to 0.0157 mg/kg and the “ratio of the doses, ED50 β2 / ED50 β1” value is recorded as 341. For the same molecule, the ED50 on peripheral β2 -receptors was determined as 5.36 mg/kg.

As to `Cn1c(NCCNCC(O)COc2ccc(OCCO)cc2)cc(=O)n(C)c1=O` (stereo not drawn) [Example 14], in assay [1], the ED50 was 0.0291 mg/kg and the “ratio of the doses, ED50 β2 / ED50 β1” value came out at 303. In addition, the ED50 at peripheral β2 -receptors is 8.83 mg/kg.

Take `CCCCOc1ccc(OCC(O)CNCCNc2cc(=O)n(C)c(=O)n2C)cc1` (stereo not drawn) [Example 13]: the ED50 was 0.0096 mg/kg in assay [1] and above 9.6 mg/kg on peripheral β2 -receptors. The “ratio of the doses, ED50 β2 / ED50 β1” value in assay [1] is on record as > 1,000.

Regarding `Cn1c(NCCNCC(O)COc2ccc(OCc3ccccc3)cc2)cc(=O)n(C)c1=O` (stereo not drawn) [Example 19], in assay [1], the ED50 amounted to 0.0139 mg/kg and the “ratio of the doses, ED50 β2 / ED50 β1” value worked out at 322. For the same molecule, the ED50 on peripheral β2 -receptors came out at 4.48 mg/kg.
